{
  "source": "paper PMC8677773",
  "about": "“Comprehensive exploration of chemical space using trisubstituted carboranes” (Scientific Reports, 2021)",
  "tested_on": "recombinant rabies virus strain 1088 expressing gaussia luciferase (1088/GLuc)",
  "experiment": "microbe, parasite or virus in culture",
  "assay_type": "cell-based",
  "conditions": "Lyssavirus rabies, N2a, 72 h, read-out: RABV IC50 (concentration required to inhibit the relative light units by 50%)",
  "data": [
    {"smiles": "NC(=O)c1nc(F)c[nH]c1=O", "note": "[Favipiravir]", "values": [
      {"measurement": "IC50", "value": 38, "unit": "µM"}
    ]}
  ]
}
